Results as given in US20100291204A1, “COMBINATION OF A LONG-ACTING HYPNOTIC AGENT AND A SHORT-ACTING HYPNOTIC AGENT AND THERAPEUTIC USE THEREOF” (SANOFI-AVENTIS, priority 2005, published 2010).
Marks after values point to notes of the source that are not given here.

Assays:
male Sprague-Dawley rats = test: Effects on sleep in rats (6 hours of recording, day 1 versus vehicle day 0); assay type: in vivo, rat; settings: for Lag time of appearance of NREM sleep: change versus vehicle control; for Duration of NREM sleep / Duration of sleep: total over 6 hours of recording
Procedure: For this study, four groups of male Sprague-Dawley rats are used, each group comprising from 5 to 9 rats.
Group A receives eplivanserin (oral route, hemifumarate) at a dose of 3 mg/kg p.o.
Group B receives zolpidem (oral route, hemitartrate) at a dose of 3 mg/kg p.o.
Group C receives (orally) in combination 3 mg/kg p.o. of eplivanserin hemifumarate and 3 mg/kg of zolpidem hemitartrate, the two compounds being administered with an interval of 5 minutes.
Finally, group D receives zolpidem (oral route, hemitartrate) at a dose of 10 mg/kg p.o.
The data are recorded on day 0 (control day), when the animals receive only a vehicle (distilled water and methylcellulose) and on day 1 when the animals receive the active principles.
The data are recorded for 6 hours each day, the active principles being administered 15 minutes before the start of recording.
In Table I, the results are expressed as percentages relative to the control groups receiving only the vehicle, unless otherwise indicated.
Duration of sleep: total duration of sleep during the 6 hours of recording. Duration of NREM sleep: total duration of NREM sleep during the 6 hours of recording. Lag time of appearance of NREM sleep: time measured from the start of the recording up to the moment of the first period of NREM sleep. Mean duration of the periods of NREM sleep: duration of NREM sleep/number of periods of NREM sleep during the 6 hours of recording.

[1] = cited from earlier work; for bioavailability: in vivo
[2] = Group B: zolpidem hemitartrate 3 mg/kg p.o., relative to vehicle control
[3] = Group D: zolpidem hemitartrate 10 mg/kg p.o., 6 hours of recording, relative to vehicle control
[4] = Group D: zolpidem hemitartrate 10 mg/kg p.o., relative to vehicle control

| Structure (SMILES) | Mean duration of the periods of NREM sleep (male Sprague-Dawley rats; Group B: zolpidem hemitartrate 3 mg/kg p.o., 6 hours of recording, relative to vehicle control) | Lag time of appearance of NREM sleep (male Sprague-Dawley rats; Group B: zolpidem hemitartrate 3 mg/kg p.o., from start of recording to first period of NREM sleep) | Duration of NREM sleep (male Sprague-Dawley rats; [2]) | Duration of sleep (male Sprague-Dawley rats; [2]) | Mean duration of the periods of NREM sleep (male Sprague-Dawley rats; [3]) | Mean number of periods of NREM sleep (male Sprague-Dawley rats; [3]) | Lag time of appearance of NREM sleep (male Sprague-Dawley rats; Group D: zolpidem hemitartrate 10 mg/kg p.o.) | Duration of NREM sleep (male Sprague-Dawley rats; [4]) | Duration of sleep (male Sprague-Dawley rats; [4]) | bioavailability [1] | duration of action ([1]; mean dose between 5 and 10 mg in a conventional formulation) | Lag time of appearance of NREM sleep (male Sprague-Dawley rats; Group A: eplivanserin hemifumarate 3 mg/kg p.o., from start of recording to first period of NREM sleep) |
| --- | --- | --- | --- | --- | --- | --- | --- | --- | --- | --- | --- | --- |
| Cc1ccc(-c2nc3ccc(C)cn3c2CC(=O)N(C)C)cc1 [zolpidem] | −15% | -6 min | +4% | −2% | +31%** | +1% | -1.2 min | +33%** | −20%** | 70% | up to 6 hours | – |
| CN(C)CCO/N=C(/C=C/c1ccc(O)cc1)c1ccccc1F [eplivanserin] | – | – | – | – | – | – | – | – | – | 80% | – | +0.6 min |
